Experimental data published in patent publication US9573884B2 (priority 2010, dated 2017).
“And” between values parts separate entries of the source, which are not always exact repeats. Equal entries are not always repeated.

Experiments:
Type in all cases: cell-based
Pseudomonas aeruginosa = tested on: Pseudomonas aeruginosa
Staphylococcus aureas = tested on: Staphylococcus aureas
[1] = tested on: Pseudomonas aeruginosa and Staphylococcus aureas

CC/C=C/CCCCCCCC(=O)NCCN1CC[N+](C)=C1CCCCCCC/C=C/CC [C12-13, C12 DETA Quat]
% Kill (Pseudomonas aeruginosa): 27.1% and 13.7%
% Kill (Staphylococcus aureas): 48.3% and 33.1%
Overall Rating [1]: good
